Source: patent publication US20230159532A1, “PARATHYROID HORMONE (PTH) RECEPTOR ANTAGONISTS AND USES THEREOF” (Crinetics Pharmaceuticals, Inc., priority 2021, published 2023)

The compounds below were run against T1, human PTHR1 receptor (Homo sapiens, UniProt Q03431) (assay: Competitive antagonist binding assay for hPTH-R1 (radioactive competition binding, SPA beads)). Conditions: human PTHR1 membranes, [125I]-[Nle8,18,Tyr34]-PTH(1-34) 0.2 nM, 90 minutes at room temperature; read-out: hPTHR1 Ki.
T1 construct: purchased Eurofins HTS030M
T1 sequence (Q03431 27-593): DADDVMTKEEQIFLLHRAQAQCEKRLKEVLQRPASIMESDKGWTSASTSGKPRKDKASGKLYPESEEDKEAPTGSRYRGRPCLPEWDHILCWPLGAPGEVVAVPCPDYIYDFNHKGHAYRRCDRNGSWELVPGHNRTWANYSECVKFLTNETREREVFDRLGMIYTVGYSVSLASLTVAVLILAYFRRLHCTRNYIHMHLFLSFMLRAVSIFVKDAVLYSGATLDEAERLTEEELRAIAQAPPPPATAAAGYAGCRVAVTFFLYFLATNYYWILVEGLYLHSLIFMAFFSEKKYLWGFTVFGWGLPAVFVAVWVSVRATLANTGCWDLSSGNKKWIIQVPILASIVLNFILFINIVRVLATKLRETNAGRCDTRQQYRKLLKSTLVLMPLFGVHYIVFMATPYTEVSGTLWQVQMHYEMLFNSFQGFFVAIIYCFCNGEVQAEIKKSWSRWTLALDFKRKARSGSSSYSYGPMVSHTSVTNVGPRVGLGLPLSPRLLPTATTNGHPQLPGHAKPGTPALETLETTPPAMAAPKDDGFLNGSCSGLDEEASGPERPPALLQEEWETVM
Description: Competitive Antagonist Binding Assay Protocol for hPTH-R1 Antagonists:
The inhibition of binding to the human PTHR1 receptor was measured in a radioactive competition binding assay using the radiolabeled [^125I]-[NLE^8,18, TYR^34]-parathyroid hormone (1-34) ligand (PerkinElmer Cat# NEX244, custom synthesis) as the probe ligand for the receptor. Briefly, membranes from cells expressing the human PTHR1 (Eurofins Cat# HTS030M) were incubated with SPA beads (PerkinElmer Cat# RPNQ0001) in binding assay buffer [50 mM HEPES (Biopioneer Cat# C0113), 5 mM MgCl2 (Sigma Cat# M8266), 10 mM CaCl2 (Fisher Scientific Cat# BP510), 0.1% BSA (Fisher Scientific Cat# BP1600), 0.01% TritonX-100 (Bio-Rad Cat#161-0407), and protease inhibitors (Pierce Cat# A32963); pH 7.4]. Membranes bound to SPA bead were treated with various dilutions of compounds (final concentrations typically 0-10,000 nM), and 0.2 nM radiolabeled ligand in 96-well isoplates (PerkinElmer Cat#6005040) for 90 minutes at room temperature. The radioactive signal was detected using a MicroBetaTriLux 1450 LSC (PerkinElmer). All data manipulations to determine the Ki values were performed using GraphPad v8 (GraphPad, San Diego Calif.).

Structure (SMILES)	Ki
CCN1C(=O)N(c2c(F)cc(NCCNCCCC(=O)O)cc2F)c2cc(Cl)ccc2-c2cc(Cl)cnc21 [1-10, 4-({2-[(4-{4,13-dichloro-8-ethyl-9-oxo-6,8,10-triazatricyclo[9.4.0.0^2,7]pentadeca-1(11),2(7),3,5,12,14-hexaen-10-yl}-3,5-difluorophenyl)amino]ethyl}amino)butanoic Acid]	< 100 nM
CCN1C(=O)N(c2c(F)cc(NCCNCCO)cc2F)c2cc(Cl)ccc2-c2cc(Cl)cnc21 [1-11, 4,13-dichloro-10-[2,6-difluoro-4-({2-[(2-hydroxyethyl)amino]ethyl}amino)phenyl]-8-ethyl-6,8,10-triazatricyclo[9.4.0.0^2,7]pentadeca-1(11),2(7),3,5,12,14-hexaen-9-one]	< 100 nM
CCN1C(=O)N(c2c(F)cc(NCCNC3CCOCC3)cc2F)c2cc(Cl)ccc2-c2cc(Cl)cnc21 [1-12, 4,13-dichloro-10-[2,6-difluoro-4-({2-[(oxan-4-yl)amino]ethyl}amino)phenyl]-8-ethyl-6,8,10-triazatricyclo[9.4.0.0^2,7]pentadeca-1(11),2(7),3,5,12,14-hexaen-9-one]	< 100 nM
CCN1C(=O)N(c2c(F)cc(NCCNC3CCOC3)cc2F)c2cc(Cl)ccc2-c2cc(Cl)cnc21 (stereo not shown) [1-13, 4,13-dichloro-10-[2,6-difluoro-4-({2-[(oxolan-3-yl)amino]ethyl}amino)phenyl]-8-ethyl-6,8,10-triazatricyclo[9.4.0.0^2,7]pentadeca-1(11),2(7),3,5,12,14-hexaen-9-one]	< 100 nM
CCN1C(=O)N(c2c(F)cc(NCCNC)cc2F)c2cc(Cl)ccc2-c2cc(F)cnc21 [1-14, 13-chloro-10-(2,6-difluoro-4-{[2-(methylamino)ethyl]amino}phenyl)-8-ethyl-4-fluoro-6,8,10-triazatricyclo[9.4.0.0^2,7]pentadeca-1(11),2(7),3,5,12,14-hexaen-9-one]	< 100 nM
CCN1C(=O)N(c2c(F)cc(NCCN)cc2F)c2cc(Cl)ccc2-c2cc(F)cnc21 [1-15, 10-{4-[(2-aminoethyl)amino]-2,6-difluorophenyl}-13-chloro-8-ethyl-4-fluoro-6,8,10-triazatricyclo[9.4.0.0^2,7]pentadeca-1(11),2(7),3,5,12,14-hexaen-9-one]	< 100 nM
CCN1C(=O)N(c2c(F)cc(NCCNCCCC(=O)O)cc2F)c2cc(Cl)ccc2-c2cc(F)cnc21 [1-16, 4-({2-[(4-{13-chloro-8-ethyl-4-fluoro-9-oxo-6,8,10-triazatricyclo[9.4.0.0^2,7]pentadeca-1(11),2(7),3,5,12,14-hexaen-10-yl}-3,5-difluorophenyl)amino]ethyl}amino)butanoic acid]	< 100 nM
CCN1C(=O)N(c2c(F)cc(NCCNCCO)cc2F)c2cc(Cl)ccc2-c2cc(F)cnc21 [1-17, 13-chloro-10-[2,6-difluoro-4-({2-[(2-hydroxyethyl)amino]ethyl}amino)phenyl]-8-ethyl-4-fluoro-6,8,10-triazatricyclo[9.4.0.0^2,7]pentadeca-1(11),2(7),3,5,12,14-hexaen-9-one]	< 100 nM
CCN1C(=O)N(c2c(F)cc(NCCNC)cc2F)c2cc(Cl)ccc2-c2cc(C)cnc21 [1-18, 13-chloro-10-(2,6-difluoro-4-{[2-(methylamino)ethyl]amino}phenyl)-8-ethyl-4-methyl-6,8,10-triazatricyclo[9.4.0.0^2,7]pentadeca-1(11),2(7),3,5,12,14-hexaen-9-one]	< 100 nM
CCN1C(=O)N(c2c(F)cc(NCCNC3CCOCC3)cc2F)c2cc(Cl)ccc2-c2cc(F)cnc21 [1-19, 13-chloro-10-[2,6-difluoro-4-({2-[(oxan-4-yl)amino]ethyl}amino)phenyl]-8-ethyl-4-fluoro-6,8,10-triazatricyclo[9.4.0.0^2,7]pentadeca-1(11),2(7),3,5,12,14-hexaen-9-one]	< 100 nM
CCN1C(=O)N(c2c(F)cc(NCCNC3CCOC3)cc2F)c2cc(Cl)ccc2-c2cc(F)cnc21 (stereo not shown) [1-20, 13-chloro-10-[2,6-difluoro-4-({2-[(oxolan-3-yl)amino]ethyl}amino)phenyl]-8-ethyl-4-fluoro-6,8,10-triazatricyclo[9.4.0.0^2,7]pentadeca-1(11),2(7),3,5,12,14-hexaen-9-one]	< 100 nM
CCN1C(=O)N(c2c(F)cc(NCCNC)cc2F)c2cccc(C)c2-c2cc(Cl)cnc21 [1-21, 4-chloro-10-(2,6-difluoro-4-{[2-(methylamino)ethyl]amino}phenyl)-8-ethyl-15-methyl-6,8,10-triazatricyclo[9.4.0.0^2,7]pentadeca-1(11),2(7),3,5,12,14-hexaen-9-one]	< 100 nM
CCN1C(=O)N(c2c(F)cc(NCCN)cc2F)c2cc(Cl)ccc2-c2cc(C)cnc21 [1-22, 10-{4-[(2-aminoethyl)amino]-2,6-difluorophenyl}-13-chloro-8-ethyl-4-methyl-6,8,10-triazatricyclo[9.4.0.0^2,7]pentadeca-1(11),2(7),3,5,12,14-hexaen-9-one]	< 100 nM
CCN1C(=O)N(c2c(F)cc(NCCNC)cc2F)c2cc(Cl)cc(C)c2-c2cccnc21 [1-23, 13-chloro-10-(2,6-difluoro-4-{[2-(methylamino)ethyl]amino}phenyl)-8-ethyl-15-methyl-6,8,10-triazatricyclo[9.4.0.0^2,7]pentadeca-1(11),2(7),3,5,12,14-hexaen-9-one]	< 100 nM
CCN1C(=O)N(c2c(F)cc(NCCNC)cc2F)c2cc(Cl)ccc2-c2cc(C3CC3)cnc21 [1-24, 13-chloro-4-cyclopropyl-10-(2,6-difluoro-4-{[2-(methylamino)ethyl]amino}phenyl)-8-ethyl-6,8,10-triazatricyclo[9.4.0.0^2,7]pentadeca-1(11),2(7),3,5,12,14-hexaen-9-one]	< 100 nM

Now from value to compound:

Ki	Structure (SMILES)
< 100 nM	CCN1C(=O)N(c2c(F)cc(NCCNCCCC(=O)O)cc2F)c2cc(Cl)ccc2-c2cc(C)cnc21 [1-25, 4-({2-[(4-{13-chloro-8-ethyl-4-methyl-9-oxo-6,8,10-triazatricyclo[9.4.0.0^2,7]pentadeca-1(11),2(7),3,5,12,14-hexaen-10-yl}-3,5-difluorophenyl)amino]ethyl}amino)butanoic acid]
< 100 nM	CCN1C(=O)N(c2c(F)cc(NCCNC3CCOCC3)cc2F)c2cc(Cl)ccc2-c2cc(C)cnc21 [1-27, 13-chloro-10-[2,6-difluoro-4-({2-[(oxan-4-yl)amino]ethyl}amino)phenyl]-8-ethyl-4-methyl-6,8,10-triazatricyclo[9.4.0.0^2,7]pentadeca-1(11),2(7),3,5,12,14-hexaen-9-one]
< 100 nM	CCN1C(=O)N(c2c(F)cc(NCCNC3CCOC3)cc2F)c2cc(Cl)ccc2-c2cc(C)cnc21 (stereo not shown) [1-28, 13-chloro-10-[2,6-difluoro-4-({2-[(oxolan-3-yl)amino]ethyl}amino)phenyl]-8-ethyl-4-methyl-6,8,10-triazatricyclo[9.4.0.0^2,7]pentadeca-1(11),2(7),3,5,12,14-hexaen-9-one]
< 100 nM	CNCCNc1cc(F)c(N2C(=O)N(C)c3ncc(Cl)cc3-c3ccc(Cl)cc32)c(F)c1 [1-30, 4,13-dichloro-10-(2,6-difluoro-4-{[2-(methylamino)ethyl]amino}phenyl)-8-methyl-6,8,10-triazatricyclo[9.4.0.0^2,7]pentadeca-1(11),2(7),3,5,12,14-hexaen-9-one]
< 100 nM	CCN1C(=O)N(c2c(F)cc(NCCNCCO)cc2F)c2cc(Cl)cc(C)c2-c2cc(F)cnc21 [1-31, 13-chloro-10-[2,6-difluoro-4-({2-[(2-hydroxyethyl)amino]ethyl}amino)phenyl]-8-ethyl-4-fluoro-15-methyl-6,8,10-triazatricyclo[9.4.0.0^2,7]pentadeca-1(11),2(7),3,5,12,14-hexaen-9-one]
< 100 nM	CCN1C(=O)N(c2c(F)cc(NCCNC)cc2F)c2cc(Cl)cc(C)c2-c2cc(F)cnc21 [1-32, 13-chloro-10-(2,6-difluoro-4-{[2-(methylamino)ethyl]amino}phenyl)-8-ethyl-4-fluoro-15-methyl-6,8,10-triazatricyclo[9.4.0.0^2,7]pentadeca-1(11),2(7),3,5,12,14-hexaen-9-one]
< 100 nM	CN1C(=O)N(c2c(F)cc(NCCN)cc2F)c2cc(Cl)ccc2-c2cc(Cl)cnc21 [1-33, 10-{4-[(2-aminoethyl)amino]-2,6-difluorophenyl}-4,13-dichloro-8-methyl-6,8,10-triazatricyclo[9.4.0.0^2,7]pentadeca-1(11),2(7),3,5,12,14-hexaen-9-one]
